Data reported in patent US20260297060A1, “COMPOUNDS FOR THE DEGRADATION OF MUTANT BRAF” (C4 THERAPEUTICS, INC., priority 2023, published 2026).

Test system: A375 human melanoma xenografts
Experiment: In vivo therapeutic efficacy in A375 human melanoma xenografts (tumor volume, T/C, TGI), Example 14
Parameters: species or system human tumor in female BALB/c nude mice
Conditions: for Tumor volume: mean ± SEM; for T/C / TGI: PG-D21
Method: Agents were tested in the A375 human melanoma xenografts. Compound 26 and Compound 141 were administered to BALB/c nude mice bearing A375 tumors from PG-DO and dosed via PO twice a day (BID) or third a day (TIP) or dosed P daily (QD) from PG-D. Dabrafenib was administered to BALB/c nude mice bearing A375 tumors from PG-D1 and dosed via P daily (QD). Compound 26 was dosed at 1.5 mg/kg (QD), 2 mg/kg (TID), 3 mg/kg (BID), 6 mg/kg (QD) and 10 mg/kg (BID) for 21 days. Compound 141 was dosed at 0.75 mg/kg (BID), 1 mg/kg (TID), 1.5 mg/kg (BID), 3 mg/kg (QD) and 5 mg/kg (BID) for 21 days. Dabrafenib was dosed at 100 mg/kg for 21 days. This study was non-GLP.
One hundred and thirty-eight female BALB/c nude Mus Musculus mice procured from Shanghai Lingchang Biological Science and Technology Co., LTD between the ages of six to eight weeks and with body weight between eighteen and twenty-two grams were used for the study. A spare mouse was also procured.
The A375 tumor cells were maintained in vitro in DMEM medium supplemented with 10% fetal bovine serum and 1% Penicillin-Streptomycin at 37° C. in an atmosphere of 5% CO2 in air. The tumor cells were routinely sub-cultured twice weekly. The cells growing in an exponential growth phase were harvested and counted for tumor inoculation.
Each mouse was inoculated subcutaneously at the right flank with A375 cells (5×10^6) in 0.2 mL of PBS supplemented with Matrigel (PBS: Matrigel=1:1) for tumor development. Animals were grouped for efficacy study on day 15 after tumor inoculation when the average tumor volume reached 220 mm^3. The test articles administration and the animal numbers in each group are shown in the above experimental Table 75.
At the time of routine monitoring, the animals were checked daily for any effects of tumor growth and treatments on normal behavior such as mobility, food and water consumption (by looking only), body weight gain/loss (body weights were measured twice weekly), eye/hair matting and any other abnormal effect as stated in the protocol. Death and observed clinical signs were recorded on the basis of the numbers of animals within each subset.
Prior to the onset of drug treatment, mice were measured for tumor size in two dimensions using a caliper, and the tumor volume (mm^3) was calculated using formula V=0.5 a×b^2 where a and b are the long and short diameters of the tumor in mm, respectively. Mice were randomized into different treatment groups based on the tumor volume.
The major endpoint was to see if the tumor growth could be delayed or mice could be cured. The tumor size was then used for calculations of T/C value. The T/C value (in percent) is an indication of antitumor effectiveness; T and C are the mean volumes of the treated and control groups, respectively on specified day.
TGI was calculated for each group using the formula: TGI (%)=[1−(Ti−T0)/(Ci−C0)]×100; Ti is the average tumor volume of a treatment group on a given day, T0 is the average tumor volume of the treatment group on the day of treatment start, Ci is the average tumor volume of the vehicle control group on the same day with Ti, and C0 is the average tumor volume of the vehicle group on the day of treatment start.
A one-way ANOVA followed by Dunnett's multiple comparison test was performed to compare tumor volume among vehicle group (Group 1) and treatment groups (Group 2-Group 12). All data were analyzed using GraphPad Prism, ns indicates p>0.05, * indicates p<0.05, ** indicates p<0.01, *** indicates p<0.001 and **** indicates p<0.0001.
Tumor growth inhibition of Compound 26, Compound 141 and dabrafenib in the treatment of female BALB/c nude mice bearing A375 xenografts was calculated based on tumor volume measured on […]. TGI and T/C were calculated respectively and the data are detailed in Table 82.

CCN(C)S(=O)(=O)Nc1ccc(F)c(Oc2ccc3ncn(C4CC5(CCN(C6CC7(C6)CN(c6cc8c(cc6F)c(N6CCC(=O)NC6=O)nn8C)C7)CC5)C4)c(=O)c3c2)c1C#N (centres unmarked) [Compound 141, 6-[2-cyano-3-[[ethyl(methyl)sulfamoyl]amino]-6-fluoro-phenoxy]-3-[7-[2-[3-(2,4-dioxohexahydropyrimidin-1-yl)-5-fluoro-1-methyl-indazol-6-yl]-2-azaspiro[3.3]heptan-6-yl]-7-azaspiro[3.5]nonan-2-yl]-4-oxo-quinazoline]
Tumor volume (0.75 mg/kg p.o. BID x 21 days, day 0): 220 ± 16 mm^3
Tumor volume (0.75 mg/kg p.o. BID x 21 days, day 4): 279 ± 20 mm^3
Tumor volume (0.75 mg/kg p.o. BID x 21 days, day 7): 299 ± 25 mm^3
Tumor volume (0.75 mg/kg p.o. BID x 21 days, day 11): 305 ± 27 mm^3
Tumor volume (0.75 mg/kg p.o. BID x 21 days, day 14): 333 ± 29 mm^3
Tumor volume (0.75 mg/kg p.o. BID x 21 days, day 18): 465 ± 48 mm^3
Tumor volume (0.75 mg/kg p.o. BID x 21 days, day 21): 634 ± 67 mm^3
Tumor volume (0.75 mg/kg p.o. BID x 21 days, day 25 (dosing-free regrowth)): 1230 ± 98 mm^3
Tumor volume (0.75 mg/kg p.o. BID x 21 days, day 28 (dosing-free regrowth)): 1536 ± 103 mm^3
Tumor volume (0.75 mg/kg p.o. BID x 21 days, day 32 (dosing-free regrowth)): 1821 ± 140 mm^3
Tumor volume (0.75 mg/kg p.o. BID x 21 days, day 35 (dosing-free regrowth)): 2230 ± 178 mm^3
Tumor volume (0.75 mg/kg p.o. BID x 21 days, day 39 (dosing-free regrowth)): 2413 ± 86 mm^3
Tumor volume (0.75 mg/kg p.o. BID x 21 days, day 42 (dosing-free regrowth)): 2786 ± 127 mm^3
Tumor volume (0.75 mg/kg p.o. BID x 21 days, day 46 (dosing-free regrowth)): 3213 ± 101 mm^3
Tumor Size on PG-D21 (Mean ± SEM) (0.75 mg/kg p.o. BID × 21 days): 634 ± 67 mm^3
T/C (0.75 mg/kg p.o. BID × 21 days): 33.7%
TGI (0.75 mg/kg p.o. BID × 21 days): 75.1%
Tumor volume (1 mg/kg p.o. TID x 21 days, day 0): 220 ± 16 mm^3
Tumor volume (1 mg/kg p.o. TID x 21 days, day 4): 199 ± 14 mm^3
Tumor volume (1 mg/kg p.o. TID x 21 days, day 7): 174 ± 12 mm^3
Tumor volume (1 mg/kg p.o. TID x 21 days, day 11): 131 ± 11 mm^3
Tumor volume (1 mg/kg p.o. TID x 21 days, day 14): 99 ± 11 mm^3
Tumor volume (1 mg/kg p.o. TID x 21 days, day 18): 117 ± 18 mm^3
Tumor volume (1 mg/kg p.o. TID x 21 days, day 21): 138 ± 22 mm^3
Tumor volume (1 mg/kg p.o. TID x 21 days, day 25 (dosing-free regrowth)): 303 ± 94 mm^3
Tumor volume (1 mg/kg p.o. TID x 21 days, day 28 (dosing-free regrowth)): 492 ± 132 mm^3
Tumor volume (1 mg/kg p.o. TID x 21 days, day 32 (dosing-free regrowth)): 718 ± 197 mm^3
Tumor volume (1 mg/kg p.o. TID x 21 days, day 35 (dosing-free regrowth)): 933 ± 232 mm^3
Tumor volume (1 mg/kg p.o. TID x 21 days, day 39 (dosing-free regrowth)): 1233 ± 240 mm^3
Tumor volume (1 mg/kg p.o. TID x 21 days, day 42 (dosing-free regrowth)): 1591 ± 302 mm^3
Tumor volume (1 mg/kg p.o. TID x 21 days, day 46 (dosing-free regrowth)): 2017 ± 443 mm^3
Tumor volume (1 mg/kg p.o. TID x 21 days, day 49 (dosing-free regrowth)): 2117 ± 505 mm^3
Tumor volume (1 mg/kg p.o. TID x 21 days, day 53 (dosing-free regrowth)): 2166 ± 495 mm^3
Tumor volume (1 mg/kg p.o. TID x 21 days, day 56 (dosing-free regrowth)): 2162 ± 633 mm^3
Tumor Size on PG-D21 (Mean ± SEM) (1 mg/kg p.o. TID × 21 days): 138 ± 22 mm^3
T/C (1 mg/kg p.o. TID × 21 days): 7.3%
TGI (1 mg/kg p.o. TID × 21 days): 104.9%
Tumor volume (1.5 mg/kg p.o. BID x 21 days, day 0): 220 ± 15 mm^3
Tumor volume (1.5 mg/kg p.o. BID x 21 days, day 4): 245 ± 18 mm^3
Tumor volume (1.5 mg/kg p.o. BID x 21 days, day 7): 213 ± 17 mm^3
Tumor volume (1.5 mg/kg p.o. BID x 21 days, day 11): 180 ± 13 mm^3
Tumor volume (1.5 mg/kg p.o. BID x 21 days, day 14): 159 ± 13 mm^3
Tumor volume (1.5 mg/kg p.o. BID x 21 days, day 18): 166 ± 14 mm^3
Tumor volume (1.5 mg/kg p.o. BID x 21 days, day 21): 208 ± 21 mm^3
Tumor volume (1.5 mg/kg p.o. BID x 21 days, day 25 (dosing-free regrowth)): 476 ± 63 mm^3
Tumor volume (1.5 mg/kg p.o. BID x 21 days, day 28 (dosing-free regrowth)): 773 ± 76 mm^3
Tumor volume (1.5 mg/kg p.o. BID x 21 days, day 32 (dosing-free regrowth)): 946 ± 93 mm^3
